# Molecular target: hTDO2 in human glioblastoma A172 cells (Homo sapiens (Human), UniProt P48775)
# Assay: Cellular assay for TDO2 activity determination in A172 cells
# Format: cell-based
# Settings: overnight incubation, kynurenine absorbance at 480 nm
# Method in brief: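 Glioblastoma A172 cells with endogenous hTDO2, 1.25×10^4 cells/well, incubated overnight at 37° C. with ten serial compound concentrations in IMDM with 2% FBS. Supernatant kynurenine, after TCA precipitation and 4-(dimethylamino)-benzaldehyde reaction, read at 480 nm against kynurenine standard curve; data curve-fitted.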
# Sequence of hTDO2 in human glioblastoma A172 cells (P48775 whole entry): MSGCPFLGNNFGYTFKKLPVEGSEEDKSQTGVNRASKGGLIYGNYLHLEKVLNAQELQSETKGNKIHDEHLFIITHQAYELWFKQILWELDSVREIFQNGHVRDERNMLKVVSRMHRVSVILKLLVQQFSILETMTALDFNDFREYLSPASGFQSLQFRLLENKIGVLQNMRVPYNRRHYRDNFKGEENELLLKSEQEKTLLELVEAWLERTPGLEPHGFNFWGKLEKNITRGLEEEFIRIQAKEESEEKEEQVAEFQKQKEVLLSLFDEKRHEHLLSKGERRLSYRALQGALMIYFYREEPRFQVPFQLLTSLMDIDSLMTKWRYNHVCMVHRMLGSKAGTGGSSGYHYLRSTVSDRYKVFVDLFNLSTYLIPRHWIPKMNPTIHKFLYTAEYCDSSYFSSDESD
row,SMILES,IC50 [nM]
1,"C[S+]([O-])CCNS(=O)(=O)c1ccc(-c2c[nH]c3cc(F)ccc23)cc1 (single isomer, unassigned; (-)) [Example 159, (−)-4-(6-fluoro-1H-indol-3-yl)-N-(2-(methylsulfinyl)-ethyl)benzenesulfonamide]",220
2,"O=C1CCCN1CC1(O)CCCN(S(=O)(=O)c2ccc(-c3c[nH]c4cc(F)ccc34)cc2)C1 (stereo not shown) [Example 132, 1-((1-((4-(6-fluoro-1H-indol-3-yl)phenyl)sulfonyl)-3-hydroxypiperidin-3-yl)methyl)pyrrolidin-2-one]",83000
3,"NCCNS(=O)(=O)c1cc(F)cc(-c2c[nH]c3cc(F)ccc23)c1 [Example 44, N-(2-aminoethyl)-3-fluoro-5-(6-fluoro-1H-indol-3-yl)-benzenesulfonamide]",430
4,"N[C@@H]1CN(S(=O)(=O)c2ccc(-c3c[nH]c4cc(F)ccc34)cc2)C[C@H]1F [Example 82, (3R,4R)-4-fluoro-1-{[4-(6-fluoro-1H-indol-3-yl)phenyl]sulfonyl}pyrrolidin-3-amine]",250
5,"N[C@H]1CN(C(=O)CCNS(=O)(=O)c2ccc(-c3c[nH]c4cc(F)ccc34)cc2)C[C@H]1F (single isomer, unassigned) [Example 172, (−)-N-(3-((3S.4R)-3-amino-4-fluoropyrrolidin-1-yl)-3-oxopropyl)-4-(6-fluoro-1H-indol-3-yl)benzenesulfonamide]",957
6,"NCCNS(=O)(=O)c1cc(-c2c[nH]c3cc(F)ccc23)ccc1F [Example 43, N-(2-aminoethyl)-2-fluoro-5-(6-fluoro-1H-indol-3-yl)-benzenesulfonamide]",410
7,"CN1CCN(C(=O)NCCNS(=O)(=O)c2ccc(-c3c[nH]c4cc(F)ccc34)cc2)CC1 [Example 110, N-(2-(4-(6-fluoro-1H-indol-3-yl)phenylsulfonamido)ethyl)-4-methylpiperazine-1-carboxamide]",180
8,"O=S(=O)(c1ccc(-c2c[nH]c3cc(F)ccc23)cc1)N1CCNCC1CO (stereo not shown) [Example 13, (1-((4-(6-fluoro-1H-indol-3-yl)phenyl)sulfonyl)piperazin-2-yl)methanol]",210
9,"Cc1ccc(-c2c[nH]c3cc(F)ccc23)cc1S(=O)(=O)NCCN [Example 56, N-(2-aminoethyl)-5-(6-fluoro-1H-indol-3-yl)-2-methylbenzenesulfonamide]",670
10,"O=S(=O)(c1cc(-c2c[nH]c3cc(F)ccc23)ccc1Cl)N1CCNCC1 [Example 23, 3-(4-chloro-3-(piperazin-1-ylsulfonyl)phenyl)-6-fluoro-1H-indole]",630
11,"N#Cc1cc(S(=O)(=O)N2CCNCC2)ccc1-c1c[nH]c2cc(F)ccc12 [Example 37, 2-(6-fluoro-1H-indol-3-yl)-5-(piperazin-1-ylsulfonyl)benzonitrile]",3700
12,"NCCN1CCN(S(=O)(=O)c2ccc(-c3c[nH]c4cc(F)ccc34)cc2)CC1=O [Example 148, 1-(2-aminoethyl)-4-((4-(6-fluoro-1H-indol-3-yl)phenyl)sulfonyl)piperazin-2-one]",570
13,"CN(CC(O)c1cccnn1)S(=O)(=O)c1ccc(-c2c[nH]c3cc(F)ccc23)cc1 (stereo not shown) [Example 121, 4-(6-fluoro-1H-indol-3-yl)-N-(2-hydroxy-2-(pyridazin-3-yl)ethyl)-N-methylbenzene-sulfonamide]",156
14,"O=C1CN(S(=O)(=O)c2ccc(-c3c[nH]c4cc(F)ccc34)cc2)CCN1C[C@@H](O)CO [Example 146, (R)-1-(2,3-dihydroxypropyl)-4-((4-(6-fluoro-1H-indol-3-yl)phenyl)sulfonyl)piperazin-2-one]",380
15,"NCCNS(=O)(=O)c1cc(Cl)cc(-c2c[nH]c3cc(F)ccc23)c1 [Example 38, N-(2-aminoethyl)-3-chloro-5-(6-fluoro-1H-indol-3-yl)-benzenesulfonamide]",2500
16,"CC(NS(=O)(=O)c1ccc(-c2c[nH]c3cc(F)ccc23)cc1)c1nncn1C (stereo not shown) [Example 85, 4-(6-fluoro-1H-indol-3-yl)-N-[1-(4-methyl-4H-1,2,4-triazol-3-yl)ethyl]benzenesulfonamide]",390
17,"O=S(=O)(c1ccc(-c2c[nH]c3cc(F)ccc23)cc1)N1CCOCC(O)C1 (stereo not shown) [Example 118, 4-((4-(6-fluoro-1H-indol-3-yl)phenyl)sulfonyl)-1,4-oxazepan-6-ol]",89
18,"O=S(=O)(NCCc1c[nH]nn1)c1ccc(-c2c[nH]c3cc(F)ccc23)cc1 [Example 72, N-(2-(1H-1,2,3-triazol-4-yl)ethyl)-4-(6-fluoro-1H-indol-3-yl)benzenesulfonamide]",300
19,"C[C@@H]1CN(S(=O)(=O)c2ccc(-c3c[nH]c4cc(F)ccc34)cc2)C[C@@H](C)N1 [Example 14, (3R,5R)-3-[4-(3,5-dimethyl-piperazine-1-sulfonyl)-phenyl]-6-fluoro-1H-indole]",190
20,"C[C@@H]1CN(S(=O)(=O)c2ccc(-c3c[nH]c4cc(F)ccc34)cc2)C[C@H](C)N1 [Example 11, 3-(4-(((cis)-3,5-dimethylpiperazin-1-yl)sulfonyl)phenyl)-6-fluoro-1H-indole]",320
21,"N[C@H]1CN(S(=O)(=O)c2ccc(-c3c[nH]c4cc(F)ccc34)cc2)C[C@H]1F (stereo in doubt) [Example 81, (+)-(cis)-4-fluoro-1-{[4-(6-fluoro-1H-indol-3-yl)phenyl]-sulfonyl}pyrrolidin-3-amine]",230
22,"NC(=O)CCCNS(=O)(=O)c1ccc(-c2c[nH]c3cc(F)ccc23)cc1 [Example 53, 4-(4-(6-fluoro-1H-indol-3-yl)phenylsulfonamido)butanamide]",210
23,"O=S(=O)(c1ccc(-c2c[nH]c3cc(F)ccc23)cc1Cl)N1CCNCC1 [Example 45, 3-(3-chloro-4-(piperazin-1-ylsulfonyl)phenyl)-6-fluoro-1H-indole]",230

# Second part, the compound after the results:
row,IC50 [nM],SMILES
1,9100,"CNC(=O)n1cc(-c2ccc(S(=O)(=O)N3CCNCC3)cc2)c2ccc(F)cc21 [Example 60, 6-fluoro-N-methyl-3-(4-(piperazin-1-ylsulfonyl)phenyl)-1H-indole-1-carboxamide]"
2,3610,"CN1C(=O)CN(S(=O)(=O)c2ccc(-c3c[nH]c4cc(F)ccc34)cc2)CC1=O [Example 145, 4-((4-(6-fluoro-1H-indol-3-yl)phenyl)sulfonyl)-1-methylpiperazine-2,6-dione]"
3,220,"O=S(=O)(c1ccc(-c2c[nH]c3cc(F)ccc23)cc1F)N1CCNCC1 [Example 28, 6-fluoro-3-(3-fluoro-4-(piperazin-1-ylsulfonyl)-phenyl)-1H-indole]"
4,449,"NC(=O)CCNS(=O)(=O)c1ccc(-c2c[nH]c3cc(F)ccc23)cc1CC(F)F [Example 175, 3-((2-(2,2-difluoroethyl)-4-(6-fluoro-1H-indol-3-yl)-phenyl)sulfonamido)propanamide]"
5,55,"NS(=O)(=O)c1ccc(-c2c[nH]c3cc(F)ccc23)cc1CO [Example 176, 4-(6-fluoro-1H-indol-3-yl)-2-(hydroxymethyl)benzenesulfonamide]"
6,116,"O=S(=O)(c1ccc(-c2c[nH]c3cc(F)ccc23)cc1)N1CCOC[C@@H]1CO [Example 112, (S)-(4-((4-(6-fluoro-1H-indol-3-yl)phenyl)sulfonyl)morpholin-3-yl)methanol]"
7,270,"O=S(=O)(N[C@H]1CCOC1)c1ccc(-c2c[nH]c3cc(F)ccc23)cc1 [Example 64, (S)-4-(6-fluoro-1H-indol-3-yl)-N-(tetrahydrofuran-3-yl)-benzenesulfonamide]"
8,186,"Cc1noc(CNS(=O)(=O)c2ccc(-c3c[nH]c4cc(F)ccc34)cc2)n1 [Example 155, 4-(6-fluoro-1H-indol-3-yl)-N-((3-methyl-1,2,4-oxadiazol-5-yl)methyl) benzenesulfonamide]"
9,1040,"CNCCCN1CCN(S(=O)(=O)c2ccc(-c3c[nH]c4cc(F)ccc34)cc2)CC1=O [Example 153, 4-((4-(6-fluoro-1H-indol-3-yl)phenyl)sulfonyl)-1-(3-(methylamino)propyl)piperazin-2-one]"
10,405,"CCc1cc(-c2c[nH]c3cc(F)ccc23)ccc1S(=O)(=O)NCCC(N)=O [Example 162, 3-(2-ethyl-4-(6-fluoro-1H-indol-3-yl)phenylsulfonamido)-propanamide]"
11,93500,"O=S(=O)(c1ccc(-c2c[nH]c3cc(F)ccc23)cc1)N1CC[C@@H](O)[C@@H](O)C1 [Example 128, (3S,4R)-1-((4-(6-fluoro-1H-indol-3-yl)phenyl)sulfonyl)piperidine-3,4-diol]"
12,170,"O=S(=O)(c1ccc(-c2c[nH]c3cc(F)ccc23)cc1)N1CC(CO)C1 [Example 63, (1-((4-(6-fluoro-1H-indol-3-yl)phenyl)sulfonyl)-azetidin-3-yl)methanol]"
13,450,"Cc1cc(-c2c[nH]c3cc(F)ccc23)cc(C)c1S(=O)(=O)N1CCNCC1 [Example 71, 3-(3,5-dimethyl-4-(piperazin-1-ylsulfonyl)phenyl)-6-fluoro-1H-indole]"
14,3900,"Cc1cc(-c2c[nH]c3cc(F)ccc23)cc(S(=O)(=O)NCCN)c1 [Example 30, N-(2-aminoethyl)-3-(6-fluoro-1H-indol-3-yl)-5-methyl-benzenesulfonamide]"
